Literature values in patent US20030129616A1, “Use of a mutation in the gene for the beta3-subunit of human g-protein” (priority 2000, published 2003).

Tested on: bladder tumor cells

## pertussis toxin
  migration of bladder tumor cells: greatly inhibited
